Among the data in patent US20180237441A1, “Chemical Compounds” (GlaxoSmithKline Intellectual Property (No.2) Limited, priority 2015, published 2018) are IC50 values, retold here.

Molecules are shown by their SMILES. Some results are limits rather than exact numbers.

The first test concerns the target T1, PERK (Homo sapiens, UniProt Q9NZJ5).
T1 sequence (Q9NZJ5 30-1116): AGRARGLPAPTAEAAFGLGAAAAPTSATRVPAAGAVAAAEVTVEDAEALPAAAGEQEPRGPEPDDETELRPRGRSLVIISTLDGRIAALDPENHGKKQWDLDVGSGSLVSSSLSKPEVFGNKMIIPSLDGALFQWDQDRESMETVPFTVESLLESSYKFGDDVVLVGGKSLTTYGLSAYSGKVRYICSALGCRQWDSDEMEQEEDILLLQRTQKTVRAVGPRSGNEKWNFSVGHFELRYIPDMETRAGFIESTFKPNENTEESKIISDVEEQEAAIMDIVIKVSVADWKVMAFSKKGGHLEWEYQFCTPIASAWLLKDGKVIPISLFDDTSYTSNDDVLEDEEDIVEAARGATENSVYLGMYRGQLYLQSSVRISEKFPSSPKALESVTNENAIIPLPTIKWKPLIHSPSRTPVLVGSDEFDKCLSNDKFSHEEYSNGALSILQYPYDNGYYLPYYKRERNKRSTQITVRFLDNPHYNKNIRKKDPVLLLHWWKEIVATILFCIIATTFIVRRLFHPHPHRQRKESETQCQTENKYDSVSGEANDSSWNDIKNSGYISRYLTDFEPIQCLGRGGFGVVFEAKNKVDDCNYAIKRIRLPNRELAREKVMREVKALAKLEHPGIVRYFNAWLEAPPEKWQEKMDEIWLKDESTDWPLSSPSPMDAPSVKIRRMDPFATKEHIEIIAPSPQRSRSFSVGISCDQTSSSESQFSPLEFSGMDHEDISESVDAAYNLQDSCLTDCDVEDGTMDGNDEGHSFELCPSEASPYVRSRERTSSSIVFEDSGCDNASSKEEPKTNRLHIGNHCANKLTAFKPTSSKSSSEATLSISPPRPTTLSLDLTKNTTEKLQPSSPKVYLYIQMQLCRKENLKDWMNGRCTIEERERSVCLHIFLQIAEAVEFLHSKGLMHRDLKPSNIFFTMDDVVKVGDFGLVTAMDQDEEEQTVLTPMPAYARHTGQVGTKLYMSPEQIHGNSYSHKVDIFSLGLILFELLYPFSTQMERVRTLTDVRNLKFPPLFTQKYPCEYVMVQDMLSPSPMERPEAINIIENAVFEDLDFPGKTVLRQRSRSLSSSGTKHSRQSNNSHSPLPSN
Nature of the test: PERK enzyme assay (HTRF). The class given is biochemical. The note with it: 500 μM ATP; at least one experimental run; read-out: PERK Enzyme (500 μM ATP) IC50. The method, boiled down: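 HTRF read-out after 2 h of EDTA-quenched reactions, detecting phospho-eIF2α with Eu/APC reagents, gave IC50 values. Reaction: 0.75 nM GST-PERK, 30–60 min compound pre-incubation (max 1% DMSO), then 60 min with 40 nM biotin-eIF2α and 500 μM ATP, HEPES pH 7.5 buffer.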
For `CN1C(=O)N(c2ccc(-c3cn(C4CC4)c4ncnc(N)c34)c(F)c2)CC1c1ccccc1` (single isomer, unassigned) [Example 165, 1-(4-(4-amino-7-cyclopropyl-7H-pyrrolo[2,3-d]pyrimidin-5-yl)-3-fluorophenyl)-3-methyl-4-phenylimidazolidin-2-one], the IC50 stood at 4 nM.

Still in this test, the particulars now being: PERK Enzyme (500 μM ATP) IC50; at least one experimental run; read-out: PERK Activity.
`CN1C(=O)N(c2ccc(-c3cn(C4CC4)c4ncnc(N)c34)c(F)c2)CC1c1ccc(Cl)cc1` (single isomer, unassigned) [Example 168, 1-(4-(4-amino-7-cyclopropyl-7H-pyrrolo[2,3-d]pyrimidin-5-yl)-3-fluorophenyl)-4-(4-chlorophenyl)-3-methylimidazolidin-2-one]: the IC50 is below 100 nM.

Consider `CCN1C(=O)N(c2ccc(-c3nn(C)c4ncnc(N)c34)c(F)c2)CC1c1ccc(F)cc1F` (centres unmarked) [Example 98, 1-(4-(4-amino-1-methyl-1H-pyrazolo[3,4-d]pyrimidin-3-yl)-3-fluorophenyl)-4-(2,4-difluorophenyl)-3-ethylimidazolidin-2-one], for which the IC50 lay within 100 to 1000 nM. Same read-out and setting: for `CN1C(=O)N(c2ccc(-c3cn(CC(F)(F)F)c4ncnc(N)c34)c(F)c2)CC1c1ccc(F)cc1F` (centres unmarked) [Example 82, 1-(4-(4-amino-7-(2,2,2-trifluoroethyl)-7H-pyrrolo[2,3-d]pyrimidin-5-yl)-3-fluorophenyl)-4-(2,4-difluorophenyl)-3-methylimidazolidin-2-one] the value was 100 to 1000 nM; for `CN1C(=O)N(c2ccc(-c3cn(C4CC4)c4ncnc(N)c34)c(F)c2)CC1c1ccc(F)c(F)c1` (single isomer, unassigned) [Example 116, 1-(4-(4-amino-7-cyclopropyl-7H-pyrrolo[2,3-d]pyrimidin-5-yl)-3-fluorophenyl)-4-(3,4-difluorophenyl)-3-methylimidazolidin-2-one], below 100 nM; for `CN1C(=O)N(c2ccc(-c3cn(C)c4ncnc(N)c34)c(F)c2)CC1c1cccnc1` (centres unmarked) [Example 60, 1-(4-(4-amino-7-methyl-7H-pyrrolo[2,3-d]pyrimidin-5-yl)-3-fluorophenyl)-3-methyl-4-(pyridin-3-yl)imidazolidin-2-one], below 100 nM. On the same count and under the same terms, for `COc1ccc(C2CN(c3ccc(-c4cn(C)c5nc(C)nc(N)c45)c(F)c3)C(=O)N2C)cc1` (centres unmarked) [Example 64, 1-(4-(4-amino-2,7-dimethyl-7H-pyrrolo[2,3-d]pyrimidin-5-yl)-3-fluorophenyl)-4-(4-methoxyphenyl)-3-methylimidazolidin-2-one] the value was 100 to 1000 nM; for `CCN1C(=O)N(c2ccc(-c3cn(C)c4ncnc(N)c34)c(F)c2)CC1c1cc(F)cc(Cl)c1` (centres unmarked) [Example 27, 1-(4-(4-amino-7-methyl-7H-pyrrolo[2,3-d]pyrimidin-5-yl)-3-fluorophenyl)-4-(3-chloro-5-fluorophenyl)-3-ethylimidazolidin-2-one], 100 to 1000 nM. Same read-out and setting: for `Cc1nc(N)c2c(-c3ccc(N4CC(c5ccc(F)cc5)N(C)C4=O)cc3F)cn(C3CC3)c2n1` (centres unmarked) [Example 91, 1-(4-(4-amino-7-cyclopropyl-2-methyl-7H-pyrrolo[2,3-d]pyrimidin-5-yl)-3-fluorophenyl)-4-(4-fluorophenyl)-3-methylimidazolidin-2-one] the value was below 100 nM; for `CN1C(=O)N(c2ccc(-c3cn(C)c4ncnc(N)c34)c(F)c2)CC1c1cc(F)cc(F)c1F` (single isomer, unassigned) [Example 141, 1-(4-(4-amino-7-methyl-7H-pyrrolo[2,3-d]pyrimidin-5-yl)-3-fluorophenyl)-3-methyl-4-(2,3,5-trifluorophenyl)imidazolidin-2-one], 100 to 1000 nM. For the compound `CC(C)n1cc(-c2ccc(N3CC(c4cc(F)ccc4F)N(C)C3=O)cc2F)c2c(N)ncnc21` (centres unmarked) [Example 43, 1-(4-(4-amino-7-isopropyl-7H-pyrrolo[2,3-d]pyrimidin-5-yl)-3-fluorophenyl)-4-(2,5-difluorophenyl)-3-methylimidazolidin-2-one], the IC50 is below 100 nM. On the same count and under the same terms, for `CCN1C(=O)N(c2ccc(-c3cn(C)c4ncnc(N)c34)c(F)c2)CC1c1cccc(C)n1` (centres unmarked) [Example 50, 1-(4-(4-amino-7-methyl-7H-pyrrolo[2,3-d]pyrimidin-5-yl)-3-fluorophenyl)-3-ethyl-4-(6-methylpyridin-2-yl)imidazolidin-2-one] the value was 100 to 1000 nM. On the same count and under the same terms, for `CN1C(=O)N(c2ccc(-c3cn(C)c4ncnc(N)c34)c(F)c2)CC1c1ccc(F)c(Cl)c1` (centres unmarked) [Example 131, 1-(4-(4-amino-7-methyl-7H-pyrrolo[2,3-d]pyrimidin-5-yl)-3-fluorophenyl)-4-(3-chloro-4-fluorophenyl)-3-methylimidazolidin-2-one] the value was below 100 nM.

Turning to `CN1C(=O)N(c2ccc(-c3cn(C4CC4)c4ncnc(N)c34)c(F)c2)CC1c1cc(F)c(F)cc1F` (single isomer, unassigned) [Example 160, 1-(4-(4-amino-7-cyclopropyl-7H-pyrrolo[2,3-d]pyrimidin-5-yl)-3-fluorophenyl)-3-methyl-4-(2,4,5-trifluorophenyl)imidazolidin-2-one], the IC50 is below 100 nM.

For `CN1C(=O)N(c2ccc(-c3cn(C4CC4)c4ncnc(N)c34)c(F)c2)CC1c1ccccc1` (single isomer, unassigned) [Example 165, 1-(4-(4-amino-7-cyclopropyl-7H-pyrrolo[2,3-d]pyrimidin-5-yl)-3-fluorophenyl)-3-methyl-4-phenylimidazolidin-2-one], the IC50 is below 100 nM. `CCN1C(=O)N(c2ccc(-c3cn(C4CC4)c4ncnc(N)c34)c(F)c2)CC1c1cc(F)cc(F)c1` (single isomer, unassigned) [Example 173, 1-(4-(4-amino-7-cyclopropyl-7H-pyrrolo[2,3-d]pyrimidin-5-yl)-3-fluorophenyl)-4-(3,5-difluorophenyl)-3-ethylimidazolidin-2-one]: the IC50 was below 100 nM. Same read-out and setting: for `Cc1nc(N)c2c(-c3c(F)cc(N4CC(c5ccc(F)cc5F)N(C)C4=O)cc3F)cn(C)c2n1` (centres unmarked) [Example 105, 1-(4-(4-amino-2,7-dimethyl-7H-pyrrolo[2,3-d]pyrimidin-5-yl)-3,5-difluorophenyl)-4-(2,4-difluorophenyl)-3-methylimidazolidin-2-one] the value was 100 to 1000 nM; for `CN1C(=O)N(c2ccc(-c3cn(C)c4ncnc(N)c34)c(F)c2)CC1c1cc(F)cc(C(F)(F)F)c1` (centres unmarked) [Example 84, 1-(4-(4-amino-7-methyl-7H-pyrrolo[2,3-d]pyrimidin-5-yl)-3-fluorophenyl)-4-(3-fluoro-5-(trifluoromethyl)phenyl)-3-methylimidazolidin-2-one], 100 to 1000 nM; for `Cc1cccc(C2CN(c3ccc(-c4cn(C)c5ncnc(N)c45)c(F)c3)C(=O)N2C)c1` (centres unmarked) [Example 39, 1-(4-(4-amino-7-methyl-7H-pyrrolo[2,3-d]pyrimidin-5-yl)-3-fluorophenyl)-3-methyl-4-(m-tolyl)imidazolidin-2-one], 100 to 1000 nM. Still for that read-out and setting: for `CN1C(=O)N(c2ccc(-c3cn(C4CC4)c4ncnc(N)c34)c(F)c2)CC1c1ccccc1` (single isomer, unassigned) [Example 166, 1-(4-(4-amino-7-cyclopropyl-7H-pyrrolo[2,3-d]pyrimidin-5-yl)-3-fluorophenyl)-3-methyl-4-phenylimidazolidin-2-one] the value was below 100 nM. On the same count and under the same terms, for `Cc1nc(C2CN(c3ccc(-c4cn(C)c5ncnc(N)c45)c(F)c3)C(=O)N2C)ccc1F` (single isomer, unassigned) [Example 113, 1-(4-(4-amino-7-methyl-7H-pyrrolo[2,3-d]pyrimidin-5-yl)-3-fluorophenyl)-4-(5-fluoro-6-methylpyridin-2-yl)-3-methylimidazolidin-2-one] the value was below 100 nM. As to `CCN1C(=O)N(c2ccc(-c3cn(C)c4nc(C)nc(N)c34)c(F)c2)CC1c1ccc(F)cc1F` (single isomer, unassigned) [Example 67, 1-(4-(4-amino-2,7-dimethyl-7H-pyrrolo[2,3-d]pyrimidin-5-yl)-3-fluorophenyl)-4-(2,4-difluorophenyl)-3-ethylimidazolidin-2-one], the IC50 fell in the range of 100 to 1000 nM.

Turning to `CCN1C(=O)N(c2ccc(-c3cn(C)c4nc(C)nc(N)c34)c(F)c2)CC1c1cc(F)ccc1F` (centres unmarked) [Example 19, 1-(4-(4-amino-2,7-dimethyl-7H-pyrrolo[2,3-d]pyrimidin-5-yl)-3-fluorophenyl)-4-(2,5-difluorophenyl)-3-ethylimidazolidin-2-one], the IC50 was above 1000 nM.
